In brackets after ≈: the same amount, converted by molar mass. Activity calls are given as the source filed them. No cut-off for these calls is given here. Where a SMILES comes first, the peptide text is derived from it. The star is where a group is joined. Stearoyl = CCCCCCCCCCCCCCCCCC(=O)*; Myristoyl = CCCCCCCCCCCCCC(=O)*; Decanoyl = CCCCCCCCCC(=O)*
Key:
Staphylococcus aureus = test: Antimicrobial activity against Staphylococcus aureus ATCC 12600 after 17 to 20 hrs by serial dilution method; format: functional
Escherichia coli = test: Antimicrobial activity against Escherichia coli ATCC 25922 after 17 to 20 hrs by serial dilution method; format: functional
Candida albicans = test: Antimicrobial activity against Candida albicans ATCC 14053 after 17 to 20 hrs by serial dilution method; format: functional
Priestia megaterium = test: Binding affinity to Bacillus megaterium pHis1525 DNA at 25 to 50 ug/ml after 30 mins by agarose gel electrophoresis

Compound | MIC (Staphylococcus aureus) [µg/mL] | MIC (Escherichia coli) [µg/mL] | MIC (Candida albicans) [µg/mL] | Activity (Priestia megaterium)
CCCCCCCCCCCCCCCCCC(=O)N[C@@H](CCCCN)C(=O)N[C@@H](Cc1c[nH]c2ccccc12)C(=O)N[C@@H](CCCCN)C(=O)N[C@@H](Cc1c[nH]c2ccccc12)C(N)=O (Stearoyl-KWKW-NH2) | > 31.2 | > 31.2 | > 62.5 | –
CCCCCCCCCCCCCCCCCC(=O)N[C@@H](CCCCN)C(=O)N[C@H](C(=O)N[C@@H](Cc1c[nH]c2ccccc12)C(=O)N[C@@H](Cc1c[nH]c2ccccc12)C(=O)N[C@@H](CCCCN)C(N)=O)[C@@H](C)CC (Stearoyl-KIWWK-NH2) | > 31.2 | > 31.2 | > 62.5 | –
CCCCCCCCCC(=O)N[C@@H](CCCNC(=N)N)C(=O)N[C@@H](Cc1c[nH]c2ccccc12)C(=O)N[C@@H](CCCNC(=N)N)C(=O)N[C@@H](Cc1c[nH]c2ccccc12)C(N)=O (Decanoyl-RWRW-NH2) | 7.8 (≈ 9.11 µM) | 15.6 (≈ 18.2 µM) | > 62.5 | –
CCCCCCCCCCCCCC(=O)N[C@@H](CCCCN)C(=O)N[C@H](C(=O)N[C@@H](Cc1c[nH]c2ccccc12)C(=O)N[C@@H](Cc1c[nH]c2ccccc12)C(=O)N[C@@H](CCCCN)C(N)=O)[C@@H](C)CC (Myristoyl-KIWWK-NH2) | 7.8 (≈ 8.05 µM) | 31.2 (≈ 32.2 µM) | 31.2 (≈ 32.2 µM) | –
CCCCCCCCCCCCCCCCCC(=O)N[C@@H](CCCNC(=N)N)C(=O)N[C@H](C(=O)N[C@@H](CCCCN)C(=O)N[C@@H](Cc1c[nH]c2ccccc12)C(=O)N[C@@H](Cc1c[nH]c2ccccc12)C(=O)N[C@@H](CCCCN)C(N)=O)[C@@H](C)CC (Stearoyl-RIKWWK-NH2) | 31.2 (≈ 26.4 µM) | > 31.2 | > 62.5 | –
CCCCCCCCCCCCCCCCCC(=O)N[C@@H](CCCNC(=N)N)C(=O)N[C@@H](Cc1c[nH]c2ccccc12)C(=O)N[C@@H](CCCNC(=N)N)C(=O)N[C@@H](Cc1c[nH]c2ccccc12)C(N)=O (Stearoyl-RWRW-NH2) | > 31.2 | > 31.2 | > 62.5 | –
CCCCCCCCCC(=O)N[C@@H](CCCCN)C(=O)N[C@H](C(=O)N[C@@H](Cc1c[nH]c2ccccc12)C(=O)N[C@@H](Cc1c[nH]c2ccccc12)C(=O)N[C@@H](CCCCN)C(N)=O)[C@@H](C)CC (Decanoyl-KIWWK-NH2) | 3.9 (≈ 4.27 µM) | 7.8 (≈ 8.54 µM) | 15.6 (≈ 17.1 µM) | –
CCCCCCCCCC(=O)N[C@@H](CCCCN)C(=O)N[C@@H](CCCNC(=N)N)C(=O)N[C@H](C(=O)N[C@@H](Cc1c[nH]c2ccccc12)C(=O)N[C@@H](Cc1c[nH]c2ccccc12)C(=O)N[C@@H](CCCNC(=N)N)C(N)=O)[C@@H](C)CC (Decanoyl-KRIWWR-NH2) | 3.9 (≈ 3.55 µM) | 7.8 (≈ 7.11 µM) | > 62.5 | –
CCCCCCCCCC(=O)N[C@@H](CCCNC(=N)N)C(=O)N[C@H](C(=O)N[C@@H](CCCCN)C(=O)N[C@@H](Cc1c[nH]c2ccccc12)C(=O)N[C@@H](Cc1c[nH]c2ccccc12)C(=O)N[C@@H](CCCCN)C(N)=O)[C@@H](C)CC (Decanoyl-RIKWWK-NH2) | 3.9 (≈ 3.65 µM) | 7.8 (≈ 7.29 µM) | > 62.5 | Active
CCCCCCCCCCCCCC(=O)N[C@@H](CCCCN)C(=O)N[C@H](C(=O)N[C@@H](CCCNC(=N)N)C(=O)N[C@@H](Cc1c[nH]c2ccccc12)C(=O)N[C@@H](Cc1c[nH]c2ccccc12)C(=O)N[C@@H](CCCNC(=N)N)C(N)=O)[C@@H](C)CC (Myristoyl-KIRWWR-NH2) | 15.6 (≈ 13.5 µM) | 31.2 (≈ 27 µM) | > 62.5 | –
CCCCCCCCCCCCCC(=O)N[C@@H](CCCNC(=N)N)C(=O)N[C@@H](Cc1c[nH]c2ccccc12)C(=O)N[C@@H](Cc1c[nH]c2ccccc12)C(=O)N[C@@H](CCCNC(=N)N)C(N)=O (Myristoyl-RWWR-NH2) | 7.8 (≈ 8.55 µM) | 15.6 (≈ 17.1 µM) | > 62.5 | –
CCCCCCCCCC(=O)N[C@@H](CCCCN)C(=O)N[C@@H](Cc1c[nH]c2ccccc12)C(=O)N[C@@H](CCCCN)C(=O)N[C@@H](Cc1c[nH]c2ccccc12)C(N)=O (Decanoyl-KWKW-NH2) | 7.8 (≈ 9.75 µM) | 7.8 (≈ 9.75 µM) | 31.2 (≈ 39 µM) | Active
CCCCCCCCCCCCCC(=O)N[C@@H](CCCCN)C(=O)N[C@@H](CCCNC(=N)N)C(=O)N[C@H](C(=O)N[C@@H](Cc1c[nH]c2ccccc12)C(=O)N[C@@H](Cc1c[nH]c2ccccc12)C(=O)N[C@@H](CCCNC(=N)N)C(N)=O)[C@@H](C)CC (Myristoyl-KRIWWR-NH2) | 7.8 (≈ 6.76 µM) | 15.6 (≈ 13.5 µM) | > 62.5 | –
CCCCCCCCCCCCCC(=O)N[C@@H](CCCNC(=N)N)C(=O)N[C@@H](Cc1c[nH]c2ccccc12)C(=O)N[C@@H](CCCNC(=N)N)C(=O)N[C@@H](Cc1c[nH]c2ccccc12)C(N)=O (Myristoyl-RWRW-NH2) | 15.6 (≈ 17.1 µM) | 15.6 (≈ 17.1 µM) | > 62.5 | –
CCCCCCCCCC(=O)N[C@@H](CCCCN)C(=O)N[C@H](C(=O)N[C@@H](CCCCN)C(=O)N[C@@H](CCCNC(=N)N)C(=O)N[C@@H](Cc1c[nH]c2ccccc12)C(=O)N[C@@H](CCCNC(=N)N)C(N)=O)[C@@H](C)CC (Decanoyl-KIKRWR-NH2) | 15.6 (≈ 15 µM) | 31.2 (≈ 30 µM) | > 62.5 | –
CCCCCCCCCCCCCCCCCC(=O)N[C@@H](CCCCN)C(=O)N[C@H](C(=O)N[C@@H](CCCCN)C(=O)N[C@@H](CCCNC(=N)N)C(=O)N[C@@H](Cc1c[nH]c2ccccc12)C(=O)N[C@@H](Cc1c[nH]c2ccccc12)C(=O)N[C@@H](CCCNC(=N)N)C(N)=O)[C@@H](C)CC (Stearoyl-KIKRWWR-NH2) | > 31.2 | > 31.2 | > 62.5 | –
CCCCCCCCCC(=O)N[C@@H](CCCCN)C(=O)N[C@H](C(=O)N[C@@H](CCCNC(=N)N)C(=O)N[C@@H](Cc1c[nH]c2ccccc12)C(=O)N[C@@H](Cc1c[nH]c2ccccc12)C(=O)N[C@@H](CCCNC(=N)N)C(N)=O)[C@@H](C)CC (Decanoyl-KIRWWR-NH2) | 3.9 (≈ 3.55 µM) | 15.6 (≈ 14.2 µM) | > 62.5 | –
CCCCCCCCCC(=O)N[C@@H](CCCCN)C(=O)N[C@@H](CCCCN)C(=O)N[C@@H](Cc1c[nH]c2ccccc12)C(=O)N[C@@H](CCCCN)C(N)=O (Decanoyl-KKWK-NH2) | 31.2 (≈ 42 µM) | > 31.2 | > 62.5 | –
CCCCCCCCCCCCCCCCCC(=O)N[C@@H](CCCCN)C(=O)N[C@@H](CCCNC(=N)N)C(=O)N[C@H](C(=O)N[C@@H](Cc1c[nH]c2ccccc12)C(=O)N[C@@H](Cc1c[nH]c2ccccc12)C(=O)N[C@@H](CCCNC(=N)N)C(N)=O)[C@@H](C)CC (Stearoyl-KRIWWR-NH2) | 15.6 (≈ 12.9 µM) | > 31.2 | > 62.5 | –
CCCCCCCCCCCCCC(=O)N[C@@H](CCCCN)C(=O)N[C@H](C(=O)N[C@@H](CCCCN)C(=O)N[C@@H](CCCNC(=N)N)C(=O)N[C@@H](Cc1c[nH]c2ccccc12)C(=O)N[C@@H](Cc1c[nH]c2ccccc12)C(=O)N[C@@H](CCCNC(=N)N)C(N)=O)[C@@H](C)CC (Myristoyl-KIKRWWR-NH2) | 15.6 (≈ 12.2 µM) | 31.2 (≈ 24.3 µM) | > 62.5 | –
CCCCCCCCCCCCCC(=O)N[C@@H](CCCCN)C(=O)N[C@@H](CCCCN)C(=O)N[C@@H](Cc1c[nH]c2ccccc12)C(=O)N[C@@H](Cc1c[nH]c2ccccc12)C(N)=O (Myristoyl-KKWW-NH2) | 7.8 (≈ 9.11 µM) | 15.6 (≈ 18.2 µM) | 15.6 (≈ 18.2 µM) | –
CCCCCCCCCCCCCCCCCC(=O)N[C@@H](CCCCN)C(=O)N[C@@H](Cc1c[nH]c2ccccc12)C(=O)N[C@@H](Cc1c[nH]c2ccccc12)C(=O)N[C@@H](CCCCN)C(N)=O (Stearoyl-KWWK-NH2) | > 31.2 | > 31.2 | > 62.5 | –
CCCCCCCCCC(=O)N[C@@H](CCCNC(=N)N)C(=O)N[C@@H](Cc1c[nH]c2ccccc12)C(=O)N[C@@H](Cc1c[nH]c2ccccc12)C(=O)N[C@@H](CCCNC(=N)N)C(N)=O (Decanoyl-RWWR-NH2) | 7.8 (≈ 9.11 µM) | 15.6 (≈ 18.2 µM) | 15.6 (≈ 18.2 µM) | –
CCCCCCCCCCCCCCCCCC(=O)N[C@@H](CCCCN)C(=O)N[C@@H](CCCCN)C(=O)N[C@@H](Cc1c[nH]c2ccccc12)C(=O)N[C@@H](Cc1c[nH]c2ccccc12)C(N)=O (Stearoyl-KKWW-NH2) | > 31.2 | > 31.2 | > 62.5 | –
CCCCCCCCCCCCCCCCCC(=O)N[C@@H](CCCNC(=N)N)C(=O)N[C@@H](Cc1c[nH]c2ccccc12)C(=O)N[C@@H](Cc1c[nH]c2ccccc12)C(=O)N[C@@H](CCCNC(=N)N)C(N)=O (Stearoyl-RWWR-NH2) | 31.2 (≈ 32.2 µM) | > 31.2 | > 62.5 | –
CCCCCCCCCCCCCCCCCC(=O)N[C@@H](CCCCN)C(=O)N[C@H](C(=O)N[C@@H](CCCCN)C(=O)N[C@@H](CCCNC(=N)N)C(=O)N[C@@H](Cc1c[nH]c2ccccc12)C(=O)N[C@@H](CCCNC(=N)N)C(N)=O)[C@@H](C)CC (Stearoyl-KIKRWR-NH2) | > 31.2 | > 31.2 | > 62.5 | –
CCCCCCCCCCCCCCCCCC(=O)N[C@@H](CCCNC(=N)N)C(=O)N[C@@H](Cc1c[nH]c2ccccc12)C(=O)N[C@@H](CCCNC(=N)N)C(N)=O (Stearoyl-Arg-Trp-Arg-NH2) | > 31.2 | > 31.2 | > 62.5 | –

— ChEMBL document CHEMBL3286360, “Tuning the antimicrobial pharmacophore to enable discovery of short lipopeptides with multiple modes of action” (Eur J Med Chem, 2014)
